Measurements as given in patent US10870858B2 (priority 2014, dated 2020).

System: stably-integrated TK strains
Assay: FUdR counterselection of TK versus tk cells on SC media
Type: cell-based, Saccharomyces
Conditions: 50 μg/mL FUdR in synthetic complete (SC) media
Protocol: With a stably integrated copy of HSV-TK in each of several genomes, we were able to evaluate counterselection media conditions. […] As an initial test of our ability to recover newly generated tk wild-type cells, we transformed a strain of S. kudriavzevii that had regions of identical sequence on either side of its hoΔ::NatMX locus with TkMX PCR product and selected for cells resistant to the antifolate drugs (FIG. 4A). When counterselection with SC+FUdR media was conducted, only cells that had deleted the TkMX marker by homologous recombination survived and yielded colonies resistant to FUdR (FIG. 4B).

O=c1[nH]c(=O)n([C@H]2C[C@H](O)[C@@H](CO)O2)cc1F [FUdR, 5-fluorodeoxyuridine] was tested, and the “growth of stably-integrated TK strains” value was “sufficient to inhibit growth” and the “growth of tk wild-type cells” value was “allow growth”.
